Each structure is given as a SMILES string.

In the assay the target is T1, E3 ubiquitin-protein ligase XIAP [163-230]/[26-93] (Homo sapiens, UniProt P98170+P98170).
T1 construct: 163-230; 26-93
In words: Biological Assay. The method, then:
5000 PPC-1 cells were plated and grown overnight. Compounds were plated and 4 hrs later, TRAIL was added to half of the plate while RPMI was added to the other half of the plate as a control. Plates were return to the incubator for 24 hrs. Plates were removed from the incubator and placed on the bench for 30 min and then 25 uL of Cell Titer Glo were added per well. Plates were placed on a rocker and then read on a luminometer. 5000 MDA-MB-231 cells were plated per well. Compound was added and 4 hrs later, TRAIL was added at 5 ng/mL; RPMI was added for a minus TRAIL control. Plates were incubated an additional 24 hrs, removed to the bench for 30 min, and then 25 uL of cell titer glo was added per well. Plates were placed on a rocker and read on a luminometer. Data were fit using PRISM.

T1 sequence (P98170 26-93): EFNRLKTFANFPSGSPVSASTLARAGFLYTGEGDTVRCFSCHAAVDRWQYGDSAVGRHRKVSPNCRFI
T1 sequence (P98170 163-230): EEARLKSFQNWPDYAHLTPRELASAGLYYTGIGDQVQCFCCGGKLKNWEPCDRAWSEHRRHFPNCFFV

For orientation: Ki means a measure of affinity in units of concentration, obtained from inhibition or displacement. As to `CN[C@@H](C)C(=O)N[C@H]1CCCNC2CCC(C(=O)N[C@@H]3CCCc4ccccc43)N2C1=O` (stereo partly specified) [US11111270, Compound 16], the Ki entry is “in the range around 37.5 µM”.
